Data as given in the CombiSolv-Exp solvation set (Vermeire and Green 2021).

Test: solvent given as SMILES

CCN(CC)CC
Details | solvation free energy, 298 K [kcal/mol]
in Brc1ccccc1 | -4.47
in C1CCOC1 | -4.59
in C1COCCO1 | -4.06
in CC1COC(=O)O1 | -2.89
in CC#N | -3.66
in CC(=O)c1ccccc1 | -3.93
in CC(C)(C)O | -4.38
in CC(C)=O | -4.05
in CC(C)CCO | -4.88
in CC(C)O | -4.55
in CC(Cl)(Cl)Cl | -4.63
in CCC#N | -4.03
in CCC(C)=O | -4.16
in CCC(C)O | -4.82
in CCCCCC | -4.49
in CCCCCCC | -4.47
in CCCCCCCCCCCCCCCC | -3.99
in CCCCCO | -4.97
in CCCCCl | -4.57
in CCCCO | -4.85
in CCCO | -4.82
in CCO | -4.87
in CCOC(=O)c1ccccc1 | -4.06
in CCOC(C)=O | -4.23
in CCOCC | -4.45
in CN(C)C=O | -3.57
in CO | -5.24
in Cc1ccc(C)cc1 | -4.52
in Cc1ccccc1 | -4.66
in ClC1CCCCC1 | -4.29
in ClC(Cl)(Cl)Cl | -4.82
in ClC(Cl)C(Cl)Cl | -5.86
in ClC(Cl)Cl | -5.61
in ClCCCl | -4.38
in ClCCl | -4.98
in Clc1ccccc1 | -4.56
in Ic1ccccc1 | -4.33
in N#Cc1ccccc1 | -4.05
in O | -3.22
in O=C1CCCCC1 | -4.11
in c1ccccc1 | -4.6

COC(=O)c1cccc([N+](=O)[O-])c1
Details | solvation free energy, 298 K [kcal/mol]
in CN(C)C=O | -10.8
in O | -6.79

FC(F)(F)C(F)(F)C(F)(F)C(F)(F)C(F)(F)C(F)(F)F
Details | solvation free energy, 298 K [kcal/mol]
in CCCCCC | -2.12
in CCCO | -0.96

Cc1ccc(N(O)C(=O)COc2ccccc2)cc1
Details | solvation free energy, 298 K [kcal/mol]
in O | -12.8

Nc1cc([N+](=O)[O-])cc(Cl)c1O
Details | solvation free energy, 298 K [kcal/mol]
in O | -10.2

C1CNCCN1
Details | solvation free energy, 298 K [kcal/mol]
in O | -7.4

Nc1ccc([N+](=O)[O-])cc1
Details | solvation free energy, 298 K [kcal/mol]
in CC(C)CC(C)(C)C | -8.11
in CC(C)CO | -11.6
in CCC(C)O | -11.9
in CCCCOC(C)=O | -12.7
in CCCCOCCCC | -11.1
in COC(C)=O | -13.2

CCCCOCC
Details | solvation free energy, 298 K [kcal/mol]
in CC(C)CCl | -4.73
in CCC(C)Cl | -4.73
in CCCCCl | -4.77
in ClC(Cl)(Cl)Cl | -4.91

CCCC(C)=O
Details | solvation free energy, 298 K [kcal/mol]
in CC(C)CC(C)(C)C | -4.14
in CC(C)CCCC(C)CCCC(C)CCCCC(C)CCCC(C)CCCC(C)C | -3.72
in CCCCCCC | -4.07
in CCCCCCCC | -3.87
in CCCCCCCCCC | -3.93
in CCCCCCCCCCCCCCCC | -3.74
in CCCCCCCCO | -4.35
in CCN1CCCC1=O | -4.86
in CCN(CC)C(C)=O | -4.91
in CCNC(C)=O | -4.61
in CCNC=O | -4.69
in CN1CCCC1=O | -4.73
in CN1CCCCC1=O | -4.83
in CNC=O | -4.69
in CO | -4.88
in NC=O | -4.12
in O | -3.46
in O=CN1CCOCC1 | -4.52
in [2H]O[2H] | -3.38

C(=Cc1ccccc1)c1ccccc1
Details | solvation free energy, 298 K [kcal/mol]
in C1CCOC1 | -11.8
in C1COCCO1 | -11.5
in CC(C)(C)O | -9.66
in CC(C)CC(C)(C)C | -9.92
in CC(C)CC(C)O | -9.81
in CC(C)CCCC(C)CCO | -10
in CC(C)CCO | -9.88
in CC(C)CO | -9.73
in CC(C)O | -9.74
in CCC(C)(C)O | -9.84
in CCC(C)=O | -11.5
in CCC(C)O | -9.81
in CCCC(C)CO | -9.92
in CCCC(C)O | -9.91
in CCCCC(CC)CO | -10
in CCCCCC | -10.2
in CCCCCCC | -10.2
in CCCCCCCC | -10.2
in CCCCCCCCCC | -10.2
in CCCCCCCCCCO | -10.2
in CCCCCCCCO | -10.2
in CCCCCCCO | -10.2
in CCCCCCO | -10.1
in CCCCCO | -10.1
in CCCCO | -10
in CCCCOC(C)=O | -11.2
in CCCCOCCCC | -10.6
in CCCO | -9.97
in CCO | -9.99
in CCOC(C)=O | -11.2
in CCOCC | -11
in CN(C)C=O | -11.6
in CO | -9.92
in COC(C)(C)C | -10.9
in COC(C)=O | -11.2
in Cc1ccc(C)cc1 | -11.3
in Cc1cccc(C)c1 | -11.2
in Cc1ccccc1C | -11.3
in ClC(Cl)(Cl)Cl | -11.2
in Clc1ccccc1 | -11.5
in O | -3.79

Clc1cc(Cl)cc(Cl)c1
Details | solvation free energy, 298 K [kcal/mol]
in CCCCCC | -6.96
in CCCCCCCCO | -6.62
in O | -0.78

CCCC(=O)OCCC(C)CCC=C(C)C (stereo not drawn)
Details | solvation free energy, 298 K [kcal/mol]
in O | -2.73

CC(C(=O)O)c1ccc(C(=O)c2cccs2)cc1 (stereo not drawn)
Details | solvation free energy, 298 K [kcal/mol]
in O | -13.9
